From paper PMC9395450, “Phase 1 study to evaluate the effects of rifampin on pharmacokinetics of pevonedistat, a NEDD8-activating enzyme inhibitor in patients with advanced solid tumors” (Investigational New Drugs, 2022)
“Also recorded” adds a separate entry of the source. Like-named read-outs stand apart in the source and are kept apart here.

Key:
[1] = Phase 1 drug-drug interaction study: single-dose pevonedistat plasma PK in the absence or presence of rifampin; format: in vivo, human; details: for AUC(0-t) / AUC(0-inf) / Cmax / clearance / Vd / half-life: human, plasma; for clearance: 50 mg/m2, plasma clearance, read-out: CL geometric mean (CV) (converted); for Vd: read-out: Vss geometric mean (CV); for half-life: read-out: t1/2z mean (SD) (converted)
Protocol: This was an open-label, multi-center study in adult patients with advanced solid tumors (NCT03486314). Eligible patients received a single 50 mg/m^2 pevonedistat dose via a 1-h infusion on Days 1 and 10, and daily oral dosing of rifampin 600 mg Days 3–11. Serial blood samples for the measurement of pevonedistat plasma concentrations were collected over 48 h following pevonedistat dosing. Pevonedistat PK parameters and ratios of geometric means for maximal plasma concentration (Cmax) and area under the plasma concentration versus time curve from time 0 to infinity (AUC0–inf) were calculated in the presence of rifampin (Day 10) and in reference to the absence of rifampin (Day 1), with associated 90% confidence intervals (CI) estimated using analysis of variance.
Serial blood samples for measuring pevonedistat concentrations were collected at intervals from 0 (predose) to 48 h after the single doses of pevonedistat on Day 1 and Day 10. Plasma samples were analyzed for pevonedistat concentrations using a previously reported validated liquid chromatography/mass spectrometry (LC–MS/MS) assay.
Pevonedistat PK parameters were calculated by noncompartmental analysis of the pevonedistat plasma concentration–time data using Phoenix WinNonlin version 8.1 (Certara, Princeton, NJ). The following single-dose PK parameters were derived: Cmax, AUC0-inf, AUC from time 0 to the last quantifiable concentration (AUC0–last), terminal disposition phase half-life (t1/2), clearance (CL), and volume of distribution at steady state (Vss).
(§1) Pevonedistat PK was assessed in all patients who received the protocol-specified pevonedistat and rifampin doses in Part A, and had sufficient concentration–time data to permit reliable estimation of PK parameters (PK-evaluable population). PK data were summarized using descriptive statistics. For assessment of the effect of rifampin on pevonedistat PK, the ratios of geometric mean Cmax, AUClast and AUCinf of pevonedistat in the presence of rifampin on Day 10 versus in the absence of rifampin on Day 1 and associated 90% CI were calculated based on analysis of variance. Estimates for each PK parameter were obtained using a mixed effects model of log(PK parameter) with fixed terms for the rifampin effect and random terms for patient. Safety was assessed in all patients who received at least one dose of pevonedistat, and TEAEs were coded according to the Medical Dictionary for Regulatory Activities (MedDRA), version 20.0.

[2] = Safety: treatment-emergent adverse events (NCI CTCAE v4.03), safety population; format: in vivo, human; details: N=20
Protocol: Safety was assessed by incidence and severity of treatment-emergent adverse events (TEAEs), vital signs, physical examinations, electrocardiograms, and clinical laboratory tests, and toxicities were graded according to the National Cancer Institute Common Terminology Criteria for Adverse Events (NCI CTCAE), version 4.03.
as §1

[3] = design: method as in PMID 33089874; details: following intravenous administration; ref [14]; cited from earlier work
[4] = design: method as in PMID 31355467; details: ref [15], cited from earlier work
[5] = design: method as in PMID 30845347; details: strong CYP3A/P-glycoprotein inhibitor itraconazole; ref [16]; cited from earlier work
[6] = ref [10]–[13], cited from earlier work
[7] = iv, 50 mg/m2, single 50 mg/m^2 IV, in the absence of rifampin (Day 1), N=20
[8] = iv, 50 mg/m2, single 50 mg/m^2 IV, in the presence of rifampin (Day 10), N=17
[9] = presence of rifampin (Day 10) vs absence (Day 1)
[10] = most common TEAEs (≥ 15% of patients)
[11] = single dose 50 mg/m^2 ± rifampin
[12] = single dose 50 mg/m^2 ± rifampin, listed as Pevonedistat

NS(=O)(=O)OC[C@@H]1C[C@@H](n2ccc3c(N[C@H]4CCc5ccccc54)ncnc32)C[C@@H]1O [pevonedistat, Pevonedistat]
geometric mean AUClast in the presence of rifampin as % of that in the absence ([1]; Day 10 vs Day 1, 90% CI 68.4%–90.1%): 78.5%
geometric mean AUC∞ (AUC0–inf) in the presence of rifampin as % of that in the absence ([1]; Day 10 vs Day 1, 90% CI 69.2%–90.2%): 79%
geometric mean Cmax in the presence of rifampin as % of that in the absence ([1]; Day 10 vs Day 1, 90% CI 79.2%–117%): 96.2%
decrease in pevonedistat systemic exposure with rifampin ([1]; coadministration with rifampin): approximately 20%
AUC(0-t) ([1]; intravenous, 50 mg/m^2, mixed-effects model, in the absence of rifampin, N=20, read-out: AUClast LS mean): 2990 ng·h/mL
AUC(0-inf) ([1]; intravenous, 50 mg/m^2, mixed-effects model, in the absence of rifampin, N=20, read-out: AUC∞ LS mean): 3030 ng·h/mL
Cmax ([1]; intravenous, 50 mg/m^2, mixed-effects model, in the absence of rifampin, N=20, read-out: Cmax LS mean): 602 ng/mL
AUC(0-t) ([1]; intravenous, mixed-effects model, in the presence of rifampin, N=17, read-out: AUClast LS mean): 2340 ng·h/mL
AUC(0-inf) ([1]; intravenous, mixed-effects model, in the presence of rifampin, N=17, read-out: AUC∞ LS mean): 2390 ng·h/mL
Cmax ([1]; intravenous, mixed-effects model, in the presence of rifampin, N=17, read-out: Cmax LS mean): 579 ng/mL
clearance ([1]; iv, single 50 mg/m^2 IV, in the absence of rifampin (Day 1), N=20): 550 mL/min
clearance ([1]; iv, single 50 mg/m^2 IV, in the presence of rifampin (Day 10), N=17): 692 mL/min
AUC(0-t) ([1]; iv, 50 mg/m2, single 50 mg/m^2 IV, in the absence of rifampin (Day 1), N=20, read-out: AUClast geometric mean (CV)): 2990 ng·h/mL
AUC(0-inf) ([1]; iv, 50 mg/m2, single 50 mg/m^2 IV, in the absence of rifampin (Day 1), N=20, read-out: AUC∞ geometric mean (CV)): 3030 ng·h/mL
Vd [1, 7]: 278 L
half-life [1, 7]: ~7 h
AUC(0-t) ([1]; iv, 50 mg/m2, single 50 mg/m^2 IV, in the presence of rifampin (Day 10), N=17, read-out: AUClast geometric mean (CV)): 2330 ng·h/mL
AUC(0-inf) ([1]; iv, 50 mg/m2, single 50 mg/m^2 IV, in the presence of rifampin (Day 10), N=17, read-out: AUC∞ geometric mean (CV)): 2370 ng·h/mL
Vd [1, 8]: 265 L
half-life [1, 8]: 5.7 h
Cmax ([1]; single 50 mg/m^2 1-h IV infusion, in the absence of rifampin (Day 1), N=20, read-out: Cmax geometric mean (CV)): 602 ng/mL
Cmax ([1]; single 50 mg/m^2 1-h IV infusion, in the presence of rifampin 600 mg daily (Day 10), N=17, read-out: Cmax geometric mean (CV)): 564 ng/mL
CL geometric mean (CV) ([1]; plasma clearance, single 50 mg/m^2 IV, in the absence of rifampin (Day 1), N=20): 33.1 (31.2%) L/h
AUClast LS mean ratio (90% CI) [1, 9]: 0.785 (0.684–0.901)
AUC∞ LS mean ratio (90% CI) [1, 9]: 0.790 (0.692–0.902)
Cmax LS mean ratio (90% CI) [1, 9]: 0.962 (0.792–1.17)
t1/2z mean (SD) ([1]; single 50 mg/m^2 IV, in the absence of rifampin (Day 1), N=20): 7.4 (1.4) h
TEAE of hypersensitivity leading to interruption of study drug or permanent withdrawal, patients [2]: Two
TEAE decreased appetite, patients [2, 10]: 4 [20%] n [%]
TEAE diarrhea, patients [2, 10]: 3 [15%] n [%]
TEAE fatigue, patients [2, 10]: 3 [15%] n [%]
Drug-related TEAEs, Events [2, 11]: 14
Grade ≥ 3 TEAEs, Events [2, 11]: 17
Grade ≥ 3 drug related TEAEs, Events [2, 11]: 3
Grade ≥ 3 drug related TEAEs, Patients (%) [2, 11]: 3 (15%) n (%)
On-study deaths, Events [2, 11]: 1
Serious TEAEs leading to study drug discontinuation, Events [2, 11]: 1
Serious TEAEs leading to study drug discontinuation, Patients (%) [2, 11]: 1 (5.0) n (%)
Serious TEAEs, Events [2, 11]: 4
Serious TEAEs, Patients (%) [2, 11]: 3 (15%) n (%)
Serious TEAEs, drug related, Events [2, 11]: 1
Serious TEAEs, drug related, Patients (%) [2, 11]: 1 (5.0) n (%)
TEAEs leading to study drug discontinuation, Events [2, 11]: 1
TEAEs leading to study drug discontinuation, Patients (%) [2, 11]: 1 (5.0) n (%)
TEAEs leading to study drug dose delayed, Events [2, 11]: 0
TEAEs leading to study drug dose delayed, Patients (%) [2, 11]: 0 n (%)
TEAEs leading to study drug dose interruption, Events [2, 11]: 0
TEAEs leading to study drug dose interruption, Patients (%) [2, 11]: 0 n (%)
TEAEs leading to study drug dose reduction, Events [2, 11]: 0
TEAEs leading to study drug dose reduction, Patients (%) [2, 11]: 0 n (%)
TEAEs, Events [2, 11]: 82
TEAEs, Patients (%) [2, 11]: 16 (80%) n (%)
Drug-related TEAEs, Patients (%) [2, 12]: 9 (45.0) n (%)
Grade ≥ 3 TEAEs, Patients (%) [2, 12]: 7 (35.0) n (%)
Grade ≥ 3 drug related TEAEs, Patients (%) [2, 12]: 3 (15.0) n (%)
On-study deaths, Patients (%) [2, 12]: 1 (5.0) n (%)
Serious TEAEs, Patients (%) [2, 12]: 3 (15.0) n (%)
TEAEs, Patients (%) [2, 12]: 16 (80.0) n (%)
whole-blood-to-plasma ratio [3]: 40
PK dose linearity ([4]; dose range 25–278 mg/m^2): linear
impact of age, sex, tumor type, mild or moderate renal impairment (creatinine clearance ≥ 30 mL/min) on PK [4]: no impact
inter-patient variability in pevonedistat clearance [4]: approximately 30%
effect of itraconazole on pevonedistat systemic exposure / PK [5]: no clinically relevant effects; also recorded: did not result in clinically meaningful increase
recommended dose for clinical investigation as a single agent ([6]; Days 1, 3 and 5 in 21-day cycles): 50 mg/m^2
maximum tolerated dose (MTD) ([6]; in combination with azacitidine): 20 mg/m^2
maximum tolerated dose (MTD) ([6]; in combination with carboplatin plus paclitaxel): 20 mg/m^2
maximum tolerated dose (MTD) ([6]; in combination with docetaxel): 25 mg/m^2
